Laboratory results: US20100137353A1, “TRICYCLIC COMPOUNDS AS ANTIBACTERIALS” (GLAXO GROUP LIMITED, priority 2007, published 2010)
Where a name gives a salt, the structure may show the parent alone.

How the values were obtained:
[1] = Whole-cell antimicrobial activity assay, broth microdilution (CLSI M7-A7); format: cell-based; conditions: against a strain of at least one of the organisms listed; tested in at least one exemplified salt form; dilutions 0.016 to 16 mcg/mL; read-out: MIC (minimum inhibitory concentration)
Method: Whole-cell antimicrobial activity was determined by broth microdilution using the Clinical and Laboratory Standards Institute (CLSI) recommended procedure, Document M7-A7, “Methods for Dilution Susceptibility Tests for Bacteria that Grow Aerobically”. The compounds were tested in serial two-fold dilutions ranging from 0.016 to 16 mcg/mL.
The minimum inhibitory concentration (MIC) was determined as the lowest concentration of compound that inhibited visible growth. A mirror reader was used to assist in determining the MIC endpoint.
Compounds were evaluated against Gram-positive organisms, including Staphylococcus aureus, Streptococcus pneumoniae, Streptococcus pyogenes, Enterococcus faecalis and Enterococcus faecium.
In addition, compounds were evaluated against Gram-negative strains including Haemophilus influenzae, Moraxella catarrhalis, Escherichia coli, Pseudomonas aeruginosa, Proteus mirabilis, Enterobacter cloacae, Enterobacter aerogenes, Klebsiella pneumoniae and Stenotrophomonas maltophilia.

[2] = system: Mycobacterium tuberculosis H37Rv; test: Mycobacterium tuberculosis H37Rv Inhibition Assay; format: cell-based; conditions: ATCC 25618 / H37Rv, H37Rv strain (ATCC25618), Middlebrook 7H9+ADC, resazurin fluorescence readout
Method: Mycobacterium tuberculosis H37Rv Inhibition Assay
The measurement of the minimum inhibitory concentration (MIC) for each tested compound was performed in 96 wells flat-bottom, polystyrene microtiter plates. Ten two-fold drug dilutions in neat DMSO starting at 400 μM were performed. Five μl of these drug solutions were added to 95 μl of Middlebrook 7H9 medium. (Lines A-H, rows 1-10 of the plate layout). Isoniazid was used as a positive control, 8 two-fold dilution of Isoniazid starting at 160 μgml^−1 was prepared and 5 μl of this control curve was added to 95 μl of Middlebrook 7H9 (Difco catalogue Ref. 271310)+ADC medium (Becton Dickinson Catalogue Ref 211887). (Row 11, lines A-H). Five μl of neat DMSO were added to row 12 (growth and Blank controls).
The inoculum was standardised to approximately 1×10^7 cfu/ml and diluted 1 in 100 in Middlebrook 7H9+ADC medium and 0.025% Tween 80 (Sigma P4780), to produce the final inoculum of H37Rv strain (ATCC25618). One hundred μl of this inoculum was added to the entire plate but G-12 and H-12 wells (Blank controls). All plates were placed in a sealed box to prevent drying out of the peripheral wells and they were incubated at 37° C. without shaking for six days. […] Fluorescence was measured (Spectramax M5 Molecular Devices, Excitation 530 nm, Emission 590 nm) after 48 hours to determine the MIC value. […]

Row | SMILES | MIC [1] | MIC [2]
1 | O=c1ccc2ncc(F)c3c2n1C[C@@]3(O)CN1CCC(NC/C=C/c2ccccn2)CC1 [Example 1, (4S)-3-Fluoro-4-hydroxy-4-[(4-{[(2E)-3-(2-pyridinyl)-2-propen-1-yl]amino}-1-piperidinyl)methyl]-4,5-dihydro-7H-pyrrolo[3,2,1-de]-1,5-naphthyridin-7-one dihydrochloride] | ≤ 2 µg/mL | –
2 | O=c1ccc2ncc(F)c3c2n1C[C@@]3(O)CN1CCC(NC/C=C/c2ccco2)CC1 [Example 2, (4S)-3-Fluoro-4-[(4-{[(2E)-3-(2-furanyl)-2-propen-1-yl]amino}-1-piperidinyl)methyl]-4-hydroxy-4,5-dihydro-7H-pyrrolo[3,2,1-de]-1,5-naphthyridin-7-one dihydrochloride] | ≤ 2 µg/mL | ≤ 5.1 µg/mL
